Test results taken from US12035716B2, “Treatment for seeds disinfection” (VILMORIN & CIE, priority 2013, dated 2024).
Where two headings read alike, the source gives them in different places.

Legend:
Acidovorax citrulli [1] = conditions: watermelon seeds
Description: The vacuum cycles continue until floating seeds are no longer sinking. The floating seeds are then removed and discarded.

CGMMV [2] = tested on: CGMMV
Description: In this case, cucumber seeds have been obtained from a commercial seed lot, naturally infected by CGMMV in the production field.
The seeds were disinfected by standard method and by vacuum infiltration method. In this case, vacuum is applied at maximal pressure of 975-985 mbar from the beginning. […] The vacuum cycles continue until floating seeds are no longer sinking. The floating seeds are then removed and discarded. This process takes 15-20 minutes.
In this case two chemicals were used.
We also tested the effect of different concentration of Na-Dichloroisocyanurate applied by vacuum infiltration on CGMMV and germination (table II) treatment E is untreated control; treatment F is vacuum infiltration of Na-Dichloroisocyanurate 0.75%; treatment G is vacuum infiltration of Na-Dichloroisocyanurate 1.5% and treatment H is vacuum infiltration of Na-Dich loroisocyanurate 2.0%.
CGMMV was tested by ELISA assay according to method 7-026 of the international rules for seed testing annex to chapter 7: seed health testing methods; International Seed Testing Association, Zurich, Switzerland, 2010.

Acidovorax citrulli [3] = conditions: for BFB by PCR method: melon, 1.0% solution, 30 vacuum cycles, sinking fraction, 5000 seeds
Description: The process: 10 kg of seed are added to 45 liters of 1% or 2% Na-Dichloroisocyanurate. The seeds are mixed in the solution for 30 minutes and then washed in running water for 10 minutes and then dried to the original water content.
Three batches of 1 kilograms of this seed lot were put in a 10 liter glass vessel together with 3.0 liters of disinfecting solution comprising of Na-Dichloroisocyanurate at 1.0%. Thirty cycles of vacuum/de-vacuum (each cycle having a duration of 1 to 1.5 minutes) were applied with three different level: (i) level A: full vacuum up to 975-985, (ii) level B: medium level of 740-816 mbar, and (iii) level C: low level of 576-667 mbar. After 40 minutes (i.e. after achieving the 30 cycles of vacuum/de-vacuum) the floating fractions were discarded and the sinking fractions were collected, washed for 40 minutes and dried.
The standard protocol can be obtained from the National Seed Health System, a program authorized by USDA-APHIS and administered by the Iowa State University Seed Science Center to accredit both private and public entities to perform certain activities needed to support the issuance of Federal phytosanitary certificates for the international movement of seed. See page 69 of the May 2014 edition of the “Vegetable Crop Method-Reference Manual B” National Seed Health System available at http://www.seedhealth.org/files/pdfVegetable_Crops.pdf.

CGMMV [4] = conditions: 1.33% solution, VI disinfection; for Seed health lab results, ELISA average count: cut-off 0.130, untreated 0.841
Description: In this case, a commercial cucumber seed lot (2 kg) naturally infected by CGMMV was treated. The infected seeds were put into a reactor containing 20 liters of Na-Dichloroisocyanurate at 1.33%. The vacuum/de-vacuum cycles (i.e. vacuum infiltration) were applied gradually starting at 500 mbar and increased by 50 mbar each cycle up to the maximum of 985 mbar. Then we continued vacuum/de-vacuum cycles at maximum vacuum pressure of 985 mbar for a total of 30 cycles. […] Both fractions were separately collected. This process took 45 minutes. CGMMV was tested by ELISA assay according to method 7-026 of the international rules for seed testing annex to chapter 7: seed health testing methods; International Seed Testing Association, Zurich, Switzerland, 2010.

cucumber seeds [5] = conditions: 1.33% solution, VI disinfection, untreated 97
Description: The germination test was performed on petri dishes (TOP) at 24 C incubator and root protrusion was counted at 4 days after seeding (TOP at 4 d).

CGMMV [6] = tested on: CGMMV; remark: listed apart in the source
Description: Samples of two commercial cucumber seed lots naturally infected by CGMMV in the production field were treated by standard disinfection or by vacuum infiltration methods. All treatments were done on 1500 seed in 300 ml solution for 40 minutes, followed by 40 minutes wash under running water. For the standard disinfection we used 2.5% Na-Dichloroisocyanurate solution and for the vacuum infiltration we used a solution containing 1.5% Na-Dichloroisocyanurate. The vacuum/de vacuum cycles were applied gradually starting at 500 mbar and increased by 100 mbar each cycle up to the maximum of 985 mbar. Then we continued vacuum/de-vacuum cycles at maximum vacuum pressure of 985 mbar for a total of 30 cycles. At the end of the treatment the floating seeds were discarded and the heavy fraction was collected, washed and dried for testing.
(§1) CGMMV was tested by ELISA assay according to method 7-026 of the international rules for seed testing annex to chapter 7: seed health testing methods; International Seed Testing Association, Zurich, Switzerland, 2010. The germination test was performed on petri dishes (TOP) at 24 C incubator and root protrusion was counted at 4 days after seeding (TOP at 4 d).

cucumber seeds [7] = tested on: cucumber seeds
Description: as §1

melon seeds = conditions: vacuum infiltration 0.5%
CGMMV [8] = conditions: watermelon seeds; vacuum infiltration 0.2% solution, 40 minutes, sinking fraction; 2000 seeds
[9] = seed lot A, VI disinfection 1.5%, heavy fraction
[10] = seed lot A, standard disinfection 2.5%
[11] = seed lot B, VI disinfection 1.5%, heavy fraction
[12] = seed lot B, standard disinfection 2.5%

O=c1nc([O-])n(Cl)c(=O)n1Cl.[Na+] [Na-Dichloroisocyanurate]
BFB infection after standard disinfection (Acidovorax citrulli [1]; standard disinfection process, 1.0% Na-Dichloroisocyanurate): still infected | BFB by sweat box assay (Acidovorax citrulli [1]; vacuum infiltration, 0.2% solution, sinking fraction, 4200 seeds tested): negative | ELISA assay result (rate of extinction at A405) (CGMMV [2]; Na-Dichloroisocyanurate 0.4%, standard disinfection, negative control 0.13): 0.45 | ELISA assay result (rate of extinction at A405) (CGMMV [2]; Na-Dichloroisocyanurate 0.4%, vacuum infiltration, negative control 0.13): 0.25 | ELISA assay result (rate of extinction at A405) (CGMMV [2]; Na-Dichloroisocyanurate 0.75%, vacuum infiltration, untreated control 0.72, negative control 0.13): 0.17 | ELISA assay result (rate of extinction at A405) (CGMMV [2]; Na-Dichloroisocyanurate 1.5%, vacuum infiltration, untreated control 0.72, negative control 0.13): 0.13 | ELISA assay result (rate of extinction at A405) (CGMMV [2]; Na-Dichloroisocyanurate 2.0%, vacuum infiltration, untreated control 0.72, negative control 0.13): 0.16 | BFB infection after standard disinfection (Acidovorax citrulli [3]; melon seeds, disinfected twice by standard protocol of example 5 (1% or 2%, 30 minutes)): still found to be BFB infected | BFB by PCR method (Acidovorax citrulli [3]; level A full vacuum up to 975-985): negative | BFB by PCR method (Acidovorax citrulli [3]; level B 740-816 mbar): negative | BFB by PCR method (Acidovorax citrulli [3]; level C 576-667 mbar): negative | Remarks (seed health) (CGMMV [4]; floating fraction (5%)): Contami- | Seed health lab results, Positive/total replicates (CGMMV [4]; floating fraction (5%)): 9/10 | Seed health lab results, ELISA average count (CGMMV [4]; floating fraction (5%)): 0.543 | Remarks (seed health) (CGMMV [4]; sinking fraction (95%)): Clean | Seed health lab results, Positive/total replicates (CGMMV [4]; sinking fraction (95%)): 0/30 | Seed health lab results, ELISA average count (CGMMV [4]; sinking fraction (95%)): 0.081 | % Germination TOP at 4 d (cucumber seeds [5]; floating fraction (5%)): 62% | % Germination TOP at 4 d (cucumber seeds [5]; sinking fraction (95%)): 94% | ELISA 10 replicates results, Positive/total (CGMMV [6]; [9]): 0/10 | Remarks (seed health) (CGMMV [6]; [9]): Clean | ELISA 10 replicates results, Average count (CGMMV [6]; seed lot A, VI disinfection 1.5%, heavy fraction, cut-off 0.148, untreated 0.693): 0.072 | ELISA 10 replicates results, Positive/total (CGMMV [6]; [10]): 9/10 | Remarks (seed health) (CGMMV [6]; [10]): Contaminated | ELISA 10 replicates results, Average count (CGMMV [6]; seed lot A, standard disinfection 2.5%, cut-off 0.174, untreated 0.693): 0.238 | ELISA 10 replicates results, Positive/total (CGMMV [6]; [11]): 0/10 | Remarks (seed health) (CGMMV [6]; [11]): Clean | ELISA 10 replicates results, Average count (CGMMV [6]; seed lot B, VI disinfection 1.5%, heavy fraction, cut-off 0.148, untreated 0.737): 0.075 | ELISA 10 replicates results, Positive/total (CGMMV [6]; [12]): 4/10 | Remarks (seed health) (CGMMV [6]; [12]): Contaminated | ELISA 10 replicates results, Average count (CGMMV [6]; seed lot B, standard disinfection 2.5%, cut-off 0.156, untreated 0.737): 0.177 | % Germination TOP at 4 d (cucumber seeds [7]; [9]): 100% | % Germination TOP at 4 d (cucumber seeds [7]; [10]): 100% | % Germination TOP at 4 d (cucumber seeds [7]; [11]): 100% | % Germination TOP at 4 d (cucumber seeds [7]; [12]): 100% | Germination (melon seeds; floating fraction, counted at 4 days): 96% | Germination (melon seeds; floating fraction, counted at 7 days): 92% | Germination (melon seeds; heavy fraction, counted at 4 days): 99% | Germination (melon seeds; heavy fraction, counted at 7 days): 99% | CGMMV by ELISA assay (CGMMV [8]): negative
